According to patent publication US8158625B2, “Bicyclic indole-pyrimidine PI3K inhibitor compounds selective for P110 delta, and methods of use” (Genentech, Inc., priority 2009, dated 2012):

Assays:
[1] = tested on: production of CD69 by B lymphocytes in human whole blood activated with goat F(ab')2 anti-human IgM; experiment: CD69 Whole Blood Assay; format: cell-based; conditions: Lymphocyte, anti-IgM stimulated, CD69 positive of CD20 positive cells, 20 hours
Description: There is good evidence that B-cells play a key role in the pathogenesis of autoimmune and/or inflammatory disease. Protein-based therapeutics that deplete B cells such as Rituxan are effective against autoantibody-driven inflammatory diseases such as rheumatoid arthritis (Rastetter et al. (2004) Annu Rev Med 55:477). CD69 is the early activation marker in leukocytes including T cells, thymocytes, B cells, NK cells, neutrophils, and eosinophils. The CD69 human whole blood assay (Example 903) determines the ability of compounds to inhibit the production of CD69 by B lymphocytes in human whole blood activated by crosslinking surface IgM with goat F(ab′)2 anti-human IgM.
Human blood is obtained from healthy volunteers, with the following restrictions: 1 week drug-free, non-smokers. Blood (approximately 20 mls to test 8 compounds) is collected by venipuncture into Vacutainer tubes with sodium heparin.
Solutions of Formula I compounds at 1000 or 2000 μM in PBS (20×), are diluted by three-fold serial dilutions in 10% DMSO in PBS for a nine point dose-response curve. An aliquot of 5.5 μl of each compound is added in duplicate to a 2 ml 96-well plate; 5.5 μl of 10% DMSO in PBS is added as control and no-stimulus wells. Human whole blood-HWB (100 μl) is added to each well. After mixing the plates are incubated at 37° C., 5% CO2, 100% humidity for 30 minutes. Goat F(ab′)2 anti-human IgM (10 μl of a 500 μg/ml solution, 50 μg/ml final) is added to each well (except the no-stimulus wells) with mixing and the plates are incubated for an additional 20 hours. At the end of the 20 hour incubation, samples are incubated with florescent labeled antibodies for 30 minutes, at 37° C., 5% CO2, 100% humidity. Include induced control, unstained and single stains for compensation adjustments and initial voltage settings. Samples are then lysed with Pharmingen Lyse according to the manufacturer's instructions. Samples are then transferred to a 96 well plate suitable to be run on the AMS 96 well system on the BD Calibur FACs machine. Data acquired and Mean Fluorescence Intensity values were obtained using Cell Quest Software. Results are initially analyzed by FACS analysis software (Flow Jo). […] The IC50 values are calculated by ActivityBase using Xlfit version 3, equation 201.

[2] = molecular target: T1, p110 alpha (Homo sapiens, UniProt P42336); experiment: PI3K isoform inhibition assay (fluorescence polarization), p110 alpha, used for delta/alpha selectivity; conditions: ratio of biochemical IC50 values
T1 construct: purchased Upstate Group, Millipore; Dundee, UK
Protocol: (§1) PI3K enzymatic activity was assayed by measuring the amount of product phosphatidylinositol 3,4,5-phosphate (PIP3) formed from substrate 4,5 phosphatidylinositol 4,5-phosphate (PIP2) using a fluorescence polarization displacement assay. The decrease in fluorescence polarization of a fluorescent PIP3 probe is measured as it is displaced from a PIP3-binding protein GRP-1 detector by PI3K-catalyzed product. Assays were conducted in 384-well black Proxiplates in the presence of 10 mM Tris (pH 7.5), 50 mM NaCl, 4 mM MgCl2, 5% glycerol, 25 μM ATP, 10 μM PIP2 (Echelon Biosciences), 0.05% 3-[(3-cholamidopropyl)dimethylammonio]-1-propanesulfonate, 1 mM dithiothreitol, and 2% DMSO. The kinase reactions were initiated by the addition of 40 ng/mL p110α/p85α, 300 ng/mL p110β/p85α, 40 ng/mL p110γ, or 40 ng/mL p110δ/p85α (Upstate Group, Millipore; Dundee, UK), and 10 μM PIP2 (Echelon Biosciences) to the wells. The reactions were stopped at timepoints that yielded a fixed change in fluorescence polarization consistent with initial rate conditions (typically 30 minutes), by the addition of 12.5 mM EDTA, 100 nM GRP-1 detector, and 5 nM tetramethylrhodamine-labeled PIP3 (TAMRA-PIP3; Echelon Biosciences). After 60 minutes of incubation at room temperature to allow equilibration of labeled and unlabeled PIP3 binding, the parallel and perpendicular components of the fluorescence emissions from each sample were measured at an excitation wavelength of 530 nm and an emission wavelength of 590 nm using an Envision fluorescent plate reader with a rhodamine filter (PerkinElmer Life and Analytical Sciences; Wellesley, Mass.). The assay is capable of detecting 0.1-2.0 μM PIP3 product. The IC50 values were obtained by fitting the dose-dependent inhibition data to a 4-parameter equation using Assay Explorer software (MDL, San Ramon, Calif.). […]
The same protocol was used to establish IC50 values for p110α (alpha) PI3K binding. […]

[3] = molecular target: T2, p110 delta (Homo sapiens, UniProt O00329); experiment: PI3K isoform inhibition assay (fluorescence polarization), p110 delta; format: biochemical; conditions: p110 delta binding IC50, Example 901
T2 construct: purchased Upstate Group, Millipore; Dundee, UK
Protocol: as §1
Recombinant PI3K p110 isoforms alpha, beta, and delta may be prepared and purified according to US 2008/0275067 from recombinant PI3K heterodimeric complexes consisting of a p110 catalytic subunit and a p85 regulatory subunit overexpressed using the BAC-TO-BAC® HT baculovirus expression system (GIBCO/BRL), and then purified for use in biochemical assays. The four Class I PI 3-kinases are cloned into baculovirus vectors as follows:
p110 delta: A FLAG™-tagged (Eastman Kodak Co., U.S. Pat. No. 4,703,004; U.S. Pat. No. 4,782,137; U.S. Pat. No. 4,851,341) version of human p110.delta (Chantry et al., J. Biol. Chem. (1997) 272:19236-41) is subcloned using standard recombinant DNA techniques into the BamH1-Xba1 site of the insect cell expression vector pFastbac HTb (Life Technologies, Gaithersburg, Md.), such that the clone is in frame with the His tag of the vector.

T2 sequence (O00329 whole entry, canonical isoform): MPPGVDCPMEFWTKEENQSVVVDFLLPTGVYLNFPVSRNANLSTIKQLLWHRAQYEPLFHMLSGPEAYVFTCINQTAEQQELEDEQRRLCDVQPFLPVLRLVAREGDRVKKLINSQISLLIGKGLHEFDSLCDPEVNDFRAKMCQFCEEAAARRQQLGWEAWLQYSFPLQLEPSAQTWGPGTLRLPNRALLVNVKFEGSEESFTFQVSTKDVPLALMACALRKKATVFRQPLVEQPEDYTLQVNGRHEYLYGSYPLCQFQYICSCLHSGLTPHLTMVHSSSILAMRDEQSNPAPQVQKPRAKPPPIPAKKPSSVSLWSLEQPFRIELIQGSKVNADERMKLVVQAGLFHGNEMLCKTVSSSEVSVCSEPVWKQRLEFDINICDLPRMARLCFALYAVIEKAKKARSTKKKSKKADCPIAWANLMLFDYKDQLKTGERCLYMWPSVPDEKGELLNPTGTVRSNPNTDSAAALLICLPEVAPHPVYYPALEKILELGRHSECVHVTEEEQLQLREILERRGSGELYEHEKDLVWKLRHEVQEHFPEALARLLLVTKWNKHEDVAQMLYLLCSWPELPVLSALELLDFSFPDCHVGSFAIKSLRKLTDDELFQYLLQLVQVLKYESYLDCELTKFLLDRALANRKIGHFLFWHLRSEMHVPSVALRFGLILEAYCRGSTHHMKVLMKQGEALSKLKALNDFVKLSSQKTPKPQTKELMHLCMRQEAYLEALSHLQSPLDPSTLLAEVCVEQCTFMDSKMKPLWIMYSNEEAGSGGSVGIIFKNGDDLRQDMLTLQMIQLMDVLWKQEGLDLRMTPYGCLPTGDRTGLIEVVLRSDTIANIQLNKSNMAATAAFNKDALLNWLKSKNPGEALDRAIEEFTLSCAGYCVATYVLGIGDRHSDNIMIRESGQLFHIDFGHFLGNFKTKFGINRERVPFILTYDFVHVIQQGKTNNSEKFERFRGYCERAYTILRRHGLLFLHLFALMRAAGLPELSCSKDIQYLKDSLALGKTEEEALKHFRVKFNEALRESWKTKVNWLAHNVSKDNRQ
T2 sequence (P27986 whole entry partner, canonical isoform): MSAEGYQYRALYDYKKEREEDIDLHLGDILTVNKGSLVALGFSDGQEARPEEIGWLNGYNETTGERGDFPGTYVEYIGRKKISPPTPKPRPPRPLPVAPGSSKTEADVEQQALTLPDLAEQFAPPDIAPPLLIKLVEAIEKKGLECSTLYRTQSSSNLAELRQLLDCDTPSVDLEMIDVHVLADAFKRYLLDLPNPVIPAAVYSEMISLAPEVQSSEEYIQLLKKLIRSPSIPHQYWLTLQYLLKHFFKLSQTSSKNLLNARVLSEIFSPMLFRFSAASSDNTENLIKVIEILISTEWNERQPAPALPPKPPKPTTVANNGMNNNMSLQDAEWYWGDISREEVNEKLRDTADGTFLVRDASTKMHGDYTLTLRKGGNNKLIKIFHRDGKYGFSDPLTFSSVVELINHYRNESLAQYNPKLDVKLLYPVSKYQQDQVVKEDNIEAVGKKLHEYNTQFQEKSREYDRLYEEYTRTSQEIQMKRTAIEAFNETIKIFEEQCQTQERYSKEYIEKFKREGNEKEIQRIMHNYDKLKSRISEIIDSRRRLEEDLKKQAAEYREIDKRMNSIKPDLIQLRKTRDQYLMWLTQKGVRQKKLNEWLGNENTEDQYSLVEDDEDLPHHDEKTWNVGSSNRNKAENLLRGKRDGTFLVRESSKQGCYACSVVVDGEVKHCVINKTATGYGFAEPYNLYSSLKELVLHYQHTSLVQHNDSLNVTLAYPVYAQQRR
T1 sequence (P42336 whole entry, canonical isoform): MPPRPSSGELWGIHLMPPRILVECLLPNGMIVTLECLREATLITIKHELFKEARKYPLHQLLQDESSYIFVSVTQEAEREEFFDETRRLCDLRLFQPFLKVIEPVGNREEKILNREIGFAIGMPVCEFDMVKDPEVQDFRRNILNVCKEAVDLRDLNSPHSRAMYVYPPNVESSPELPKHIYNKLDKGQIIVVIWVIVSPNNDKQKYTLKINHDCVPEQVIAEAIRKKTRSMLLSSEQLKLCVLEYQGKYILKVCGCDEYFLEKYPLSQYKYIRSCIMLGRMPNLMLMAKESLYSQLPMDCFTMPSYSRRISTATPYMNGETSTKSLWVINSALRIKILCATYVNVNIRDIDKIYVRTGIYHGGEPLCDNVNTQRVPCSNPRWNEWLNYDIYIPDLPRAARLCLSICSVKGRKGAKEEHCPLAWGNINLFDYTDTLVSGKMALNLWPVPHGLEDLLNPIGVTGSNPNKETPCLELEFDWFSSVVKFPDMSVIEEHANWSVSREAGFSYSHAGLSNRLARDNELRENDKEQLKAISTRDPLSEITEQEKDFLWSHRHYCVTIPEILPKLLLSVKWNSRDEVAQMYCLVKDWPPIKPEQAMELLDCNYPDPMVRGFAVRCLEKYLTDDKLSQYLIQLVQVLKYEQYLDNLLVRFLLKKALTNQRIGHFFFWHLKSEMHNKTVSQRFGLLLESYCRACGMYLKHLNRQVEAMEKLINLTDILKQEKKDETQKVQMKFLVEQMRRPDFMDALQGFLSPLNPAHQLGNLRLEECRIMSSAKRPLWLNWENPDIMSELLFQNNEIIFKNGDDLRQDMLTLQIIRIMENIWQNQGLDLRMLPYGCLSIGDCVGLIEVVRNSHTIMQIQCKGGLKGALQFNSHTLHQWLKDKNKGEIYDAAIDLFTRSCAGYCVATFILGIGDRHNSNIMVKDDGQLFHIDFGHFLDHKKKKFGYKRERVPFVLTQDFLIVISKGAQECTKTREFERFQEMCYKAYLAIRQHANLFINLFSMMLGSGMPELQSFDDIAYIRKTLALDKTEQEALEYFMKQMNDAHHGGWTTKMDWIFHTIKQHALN
T1 sequence (P27986 whole entry partner, canonical isoform): as the sequence (P27986 whole entry partner, canonical isoform) above

| SMILES | IC50 [1] [nM] | IC50 p110 alpha/IC50 p110 delta [2] | IC50 [3] [nM] |
| --- | --- | --- | --- |
| CN(C)C1CCN(Cc2cc3nc(-c4c[nH]c5ccccc45)nc(N4CCOCC4)c3s2)CC1 [Compound 101, 1-((2-(1H-indol-3-yl)-4-morpholinothieno[3,2-d]pyrimidin-6-yl)methyl)-N,N-dimethylpiperidin-4-amine] | 17.3 | 101 |  |
| c1ccc2c(-c3nc(N4CCOCC4)c4nc(CN5CC(N6CCOCC6)C5)sc4n3)c[nH]c2c1 [Compound 117, 4-(5-(1H-indol-3-yl)-2-((3-morpholinoazetidin-1-yl)methyl)thiazolo[5,4-d]pyrimidin-7-yl)morpholine] | 84 | 198 | 2 |
| CN(C)[C@@H]1CCN(Cc2nc3c(N4CCOCC4)nc(-c4c[nH]c5ccccc45)nc3n2C)C[C@@H]1F [Compound 122, (3S,4R)-1-((2-(1H-indol-3-yl)-9-methyl-6-morpholino-9H-purin-8-yl)methyl)-3-fluoro-N,N-dimethylpiperidin-4-amine] | 188 | 96 | 7.5 |
| CN(C)C1CCN(Cc2cc3nc(-n4ccc5cc(O)ccc54)nc(N4CCOCC4)c3s2)CC1 [Compound 132, 1-(6-((4-(dimethylamino)piperidin-1-yl)methyl)-4-morpholinothieno[3,2-d]pyrimidin-2-yl)-1H-indol-5-ol] |  | 37 | 22 |
| Cn1c(CN2CCC(C(C)(C)O)CC2)nc2c(N3CCOCC3)nc(-c3c[nH]c4cc(F)ccc34)nc21 [Compound 124, 2-(1-((2-(6-fluoro-1H-indol-3-yl)-9-methyl-6-morpholino-9H-purin-8-yl)methyl)piperidin-4-yl)propan-2-ol] |  | >160 | 616 |
| CN(C)C1CCN(Cc2cc3nc(-c4c[nH]c5ccc(F)cc45)nc(N4CCOCC4)c3s2)CC1 [Compound 113, 1-((2-(5-fluoro-1H-indol-3-yl)-4-morpholinothieno[3,2-d]pyrimidin-6-yl)methyl)-N,N-dimethylpiperidin-4-amine] |  | 13 | 102 |
| COCc1cc2ccccc2n1-c1nc(N2CCOCC2)c2nc(CN3CCC(C(C)(C)O)CC3)n(C)c2n1 [Compound 127, 2-(1-((2-(2-(methoxymethyl)-1H-indol-1-yl)-9-methyl-6-morpholino-9H-purin-8-yl)methyl)piperidin-4-yl)propan-2-ol] | 891 | 186 | 29 |
| CN(C)C1CCN(Cc2cc3nc(-n4ccc5ccccc54)nc(N4CCOCC4)c3s2)CC1 [Compound 103, 1-((2-(1H-indol-1-yl)-4-morpholinothieno[3,2-d]pyrimidin-6-yl)methyl)-N,N-dimethylpiperidin-4-amine] |  | 54 | 10.4 |
| Cc1cc2cc(F)ccc2n1-c1nc(N2CCOCC2)c2sc(CN3CCC(N(C)C)CC3)cc2n1 [Compound 119, 1-((2-(5-fluoro-2-methyl-1H-indol-1-yl)-4-morpholinothieno[3,2-d]pyrimidin-6-yl)methyl)-N,N-dimethylpiperidin-4-amine] | 950 | 68 | 23.6 |
| CN(C)C1CCN(Cc2cc3nc(N4CCc5ccccc54)nc(N4CCOCC4)c3s2)CC1 [Compound 102, 1-((2-(indolin-1-yl)-4-morpholinothieno[3,2-d]pyrimidin-6-yl)methyl)-N,N-dimethylpiperidin-4-amine] | 1700 | 34 | 20.8 |
| Cn1c(CN2CCC(N3CCOCC3)CC2)nc2c(N3CCOCC3)nc(-c3c[nH]c4ccccc34)nc21 [Compound 104, 4-(1-((2-(1H-indol-3-yl)-9-methyl-6-morpholino-9H-purin-8-yl)methyl)piperidin-4-yl)morpholine] | 623 | 105 | 47.7 |
| Cn1c(CN2CCC(C(C)(C)O)CC2)nc2c(N3CCOCC3)nc(-n3c(C#N)cc4ccccc43)nc21 [Compound 136, 1-(8-((4-(2-hydroxypropan-2-yl)piperidin-1-yl)methyl)-9-methyl-6-morpholino-9H-purin-2-yl)-1H-indole-2-carbonitrile] | 4600 | 265 | 20 |
| CC(C)(C(N)=O)N1CCN(Cc2cc3nc(-c4c(C#N)[nH]c5ccccc45)nc(N4CCOCC4)c3s2)CC1 [Compound 129, 2-(4-((2-(2-cyano-1H-indol-3-yl)-4-morpholinothieno[3,2-d]pyrimidin-6-yl)methyl)piperazin-1-yl)-2-methylpropanamide] |  | 238 | 3.4 |
| O=C1COC2(CCN(Cc3cc4nc(-c5c[nH]c6ccccc56)nc(N5CCOCC5)c4s3)CC2)CN1 [Compound 116, 9-((2-(1H-indol-3-yl)-4-morpholinothieno[3,2-d]pyrimidin-6-yl)methyl)-1-oxa-4,9-diazaspiro[5.5]undecan-3-one] |  | 25 | 55 |
| CC(C)(OCCN1CCCC1)c1cc2nc(-c3c[nH]c4ccccc34)nc(N3CCOCC3)c2s1 [Compound 125] |  | 63 | 8.4 |
